{
  "source": "patent US20180184655A1",
  "about": "(priority 2011, published 2018)",
  "test_system": "Phytophthora infestans",
  "assay_type": "in vivo, Phytophthora infestans on Potato",
  "settings": "Potato field trial, France 2010, 6 foliar sprays, fluopicolide 75 g a.s./ha, cyazofamid 60 g a.s./ha, adjuvant 150 ml/ha",
  "data": [
    {"smiles": "O=C(NCc1ncc(C(F)(F)F)cc1Cl)c1c(Cl)cccc1Cl", "note": "[Fluopicolide, 2,6-dichloro-N-[3-chloro-5-(trifluoromethyl)-2-pyridylmethyl]benzamide]", "values": [
      {"measurement": "Efficacy (Abbott values)", "setting": "29 days after last application", "value": 18.3, "unit": "%"},
      {"measurement": "Late blight severity on leaves", "setting": "assessed 29 days after last application, mean values, untreated reference 100%", "value": 81.7, "unit": "%"}
    ]}
  ]
}
